Measured values: publication PMC3069126 (Journal of natural products, 2011)
Values belong to the compound of their own block, whether it stands above or below them.

Tests used:
ovine QR2 = test: Ultrafiltration LC-MS binding assay for QR2
[1] = target: T1, quinone reductase 2 (QR2) (Homo sapiens, UniProt P16083); test: QR2 assay
T1 sequence (P16083 1-231): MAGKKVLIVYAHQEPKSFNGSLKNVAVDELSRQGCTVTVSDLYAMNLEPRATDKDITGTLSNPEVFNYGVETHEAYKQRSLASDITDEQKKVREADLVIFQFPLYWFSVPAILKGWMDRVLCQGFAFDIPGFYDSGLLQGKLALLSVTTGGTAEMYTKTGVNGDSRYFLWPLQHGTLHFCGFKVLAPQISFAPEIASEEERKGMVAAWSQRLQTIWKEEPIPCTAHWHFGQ

Hepa1c1c7 cells = test: Cytotoxicity assay; format: cell-based; settings: Hepa-1c1c7, read-out: inhibition of Hepa1c1c7
MCF-7 cells = test: Cytotoxicity assay; format: cell-based; settings: Homo sapiens, MCF7, read-out: inhibition of MCF-7

response in LC-MS ultrafiltration binding assay with QR2 (ovine QR2): positive response
Compound: COc1c(-c2ccc(O)cc2)oc2cc(O[C@@H]3O[C@H](CO[C@@H]4O[C@@H](CO)[C@H](O)[C@H]4O)[C@@H](O)[C@H](O)[C@H]3O)cc(O)c2c1=O [Compound 10, 4′, 5,7-trihydroxy-3-methoxyflavone-7-O-α-L-arabinofuranosyl (1→6)-β-D-glucopyranoside]

response in LC-MS ultrafiltration binding assay with QR2 (ovine QR2): positive response
Compound: COc1c(-c2ccc(O)cc2)oc2cc(O[C@@H]3O[C@H](CO)[C@@H](O)[C@H](O)[C@H]3O)cc(O)c2c1=O [Compound 14, 4′, 5,7-trihydroxy-3-methoxyflavone-7-O-β-D-glucopyranoside]

Second part, the compound before the results:

Compound: O=c1c(O[C@@H]2O[C@H](CO)[C@@H](O)[C@H](O)[C@H]2O)c(-c2ccc(O)c(O)c2)oc2cc(O)cc(O)c12 [Compound 15, quercetin-3-O-β-D-glucoside]
ability to inhibit QR2 (in words) [1]: able to inhibit QR2

Compound: CC(=O)O[C@H]1C(=O)[C@@]2(C)[C@H]([C@H](OC(=O)c3ccccc3)[C@]3(O)C[C@H](OC(=O)[C@H](O)[C@@H](NC(=O)c4ccccc4)c4ccccc4)C(C)=C1C3(C)C)[C@]1(OC(C)=O)CO[C@@H]1C[C@@H]2O [paclitaxel]
inhibition at 23.4 µM (Hepa1c1c7 cells): 57%
inhibition at 23.4 µM (MCF-7 cells): 64%

Compound: CC[C@]1(O)C[C@@H]2CN(CCc3c([nH]c4ccccc34)[C@@](C(=O)OC)(c3cc4c(cc3OC)N(C)[C@H]3[C@@](O)(C(=O)OC)[C@H](OC(C)=O)[C@]5(CC)C=CCN6CC[C@]43[C@@H]65)C2)C1 [vinblastine]
inhibition at 49.4 µM (Hepa1c1c7 cells): 90%
inhibition at 49.4 µM (MCF-7 cells): 74%
